Values of other authors, collected in patent publication US20260232560A1, “SKIN HEALTH BENEFITTING COMPOSITIONS” (priority 2023, published 2026).

What was measured:
[1] = background statement
[2] = poor solubility and permeability

| BCS class [2] | Structure (SMILES) | antioxidant power relative to grape seed extract [1] |
| --- | --- | --- |
| – | CCCC\C=C/C=C/C=C\CCCCCCCC(=O)O [Punicic acid] | approximately 10 times |
| BCS Class IV | O=c1oc2c(O)c(O)cc3c(=O)oc4c(O)c(O)cc1c4c23 [Ellagic acid] | – |
